Assay results: patent US20230139445A1, “BACTERIAL CELLS WITH IMPROVED TOLERANCE TO DIACIDS” (priority 2016, published 2023)
Like-named read-outs stand apart in the source and are kept apart here.

Assays:
[1] = test system: Escherichia coli K-12 MG1655 and evolved isolates; format: cell-based; conditions: 45 g/L itaconic acid
Method in brief: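 Wild-type MG1655 and evolved isolates, precultured overnight in M9 + 1% glucose at 37 °C, were diluted into M9 + 1% glucose. Growth at 37 °C, 225 rpm, scanned every 15 min; pixel values calibrated to OD600. Diacids tested as sodium salts or neutralized to pH 7.0.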

[2] = test system: Escherichia coli K-12 MG1655; experiment: Growth of K-12 MG1655 in varying concentrations of fumaric, itaconic, malic and succinic acid, Growth Profiler; format: cell-based
Protocol: Five colonies from wild-type K-12 MG1655 and 10 individual colonies deriving from each population were inoculated into 300 μL M9+1% glucose in 96 well deepwell plates and incubated in a 300 rpm plate shaker at 37° C. The next day, cells were diluted 10× in M9+1% glucose and 30 μL was transferred into clear-bottomed 96 well half-deepwell plates (with rectangular wells) containing M9+1% glucose and M9+1% glucose+52.78 g/L glutaric acid or 55.56 g/L adipic acid, such that the final concentration of glutaric acid or adipic acid was 47.5 g/L or 50 g/L, respectively. In addition, cryogenic glycerol stocks of the overnight culture were saved in a 96 well plate format. Half deepwell plates were incubated at 37° C. with 225 rpm shaking in a Growth Profiler (Enzyscreen), with optical scans of the plates taken at 15 minute intervals. Green pixel values integrated over a 1 mm diameter circular area in each well were converted to OD600 values using a previously determined calibration between OD600 and green pixel values.
Additionally, each evolved isolate was tested for cross-tolerance toward other dicarboxylic acids of interest. […] All diacids tested were either the neutral sodium salts, or the free diacid was neutralized with sodium hydroxide to pH 7.0 for testing.

## C=C(CC(=O)O)C(=O)O [itaconic acid]
[1]; strain ADIP1-1
  growth rate μ (mean): 0.466 h⁻¹
  lag time tlag (mean): 8.3 h
[1]; strain ADIP1-9
  growth rate μ (mean): 0.434 h⁻¹
  lag time tlag (mean): 8.7 h
[1]; strain ADIP2-5
  growth rate μ (mean): 0.440 h⁻¹
  lag time tlag (mean): 8.3 h
[1]; strain ADIP2-6
  growth rate μ (mean): 0.470 h⁻¹
  lag time tlag (mean): 8.2 h
[1]; strain ADIP2-10
  growth rate μ (mean): 0.438 h⁻¹
  lag time tlag (mean): 8.3 h
[1]; strain ADIP3-2
  growth rate μ (mean): 0.459 h⁻¹
  lag time tlag (mean): 7.9 h
[1]; strain ADIP3-4
  growth rate μ (mean): 0.451 h⁻¹
  lag time tlag (mean): 8.4 h
[1]; strain ADIP3-8
  growth rate μ (mean): 0.433 h⁻¹
  lag time tlag (mean): 8.5 h
[1]; strain ADIP4-1
  growth rate μ (mean): 0.339 h⁻¹
  lag time tlag (mean): 11.2 h
[1]; strain ADIP4-8
  growth rate μ (mean): 0.326 h⁻¹
  lag time tlag (mean): 10.4 h
[1]; strain ADIP5-2
  growth rate μ (mean): 0.354 h⁻¹
  lag time tlag (mean): 9.4 h
[1]; strain ADIP5-6
  growth rate μ (mean): 0.527 h⁻¹
  lag time tlag (mean): 7.2 h
[1]; strain ADIP6-3
  growth rate μ (mean): 0.327 h⁻¹
  lag time tlag (mean): 9.9 h
[1]; strain ADIP6-9
  growth rate μ (mean): 0.337 h⁻¹
  lag time tlag (mean): 10.3 h
[1]; strain ADIP6-10
  growth rate μ (mean): 0.343 h⁻¹
  lag time tlag (mean): 9.1 h
[1]; strain ADIP7-2
  growth rate μ (mean): 0.342 h⁻¹
  lag time tlag (mean): 7.9 h
[1]; strain ADIP7-5
  growth rate μ (mean): 0.402 h⁻¹
  lag time tlag (mean): 8.6 h
[1]; strain ADIP8-3
  growth rate μ (mean): 0.308 h⁻¹
  lag time tlag (mean): 11.7 h
[1]; strain ADIP8-7
  growth rate μ (mean): 0.235 h⁻¹
  lag time tlag (mean): 12.5 h
[1]; strain ADIP8-10
  growth rate μ (mean): 0.290 h⁻¹
  lag time tlag (mean): 11.3 h
[1]; strain GLUT1-3
  growth rate μ (mean): 0.454 h⁻¹
  lag time tlag (mean): 10.2 h
[1]; strain GLUT1-9
  growth rate μ (mean): 0.446 h⁻¹
  lag time tlag (mean): 10.4 h
[1]; strain GLUT1-10
  growth rate μ (mean): 0.446 h⁻¹
  lag time tlag (mean): 18.1 h
[1]; strain GLUT2-1
  growth rate μ (mean): 0.385 h⁻¹
  lag time tlag (mean): 10.8 h
[1]; strain GLUT2-9
  growth rate μ (mean): 0.415 h⁻¹
  lag time tlag (mean): 9.0 h
[1]; strain GLUT2-10
  growth rate μ (mean): 0.494 h⁻¹
  lag time tlag (mean): 8.8 h
[1]; strain GLUT3-5
  growth rate μ (mean): 0.310 h⁻¹
  lag time tlag (mean): 12.0 h
[1]; strain GLUT3-7
  growth rate μ (mean): 0.326 h⁻¹
  lag time tlag (mean): 11.7 h
[1]; strain GLUT3-9
  growth rate μ (mean): 0.257 h⁻¹
  lag time tlag (mean): 14.5 h
[1]; strain GLUT4-1
  growth rate μ (mean): 0.414 h⁻¹
  lag time tlag (mean): 11.7 h
[1]; strain GLUT4-4
  growth rate μ (mean): 0.339 h⁻¹
  lag time tlag (mean): 13.4 h
[1]; strain GLUT4-10
  growth rate μ (mean): 0.328 h⁻¹
  lag time tlag (mean): 13.5 h
[1]; strain GLUT5-4
  growth rate μ (mean): 0.398 h⁻¹
  lag time tlag (mean): 15.2 h
[1]; strain GLUT5-5
  growth rate μ (mean): 0.368 h⁻¹
  lag time tlag (mean): 11.4 h
[1]; strain GLUT5-9
  growth rate μ (mean): 0.438 h⁻¹
  lag time tlag (mean): 22.5 h
[1]; strain GLUT6-4
  growth rate μ (mean): 0.360 h⁻¹
  lag time tlag (mean): 11.3 h
[1]; strain GLUT6-5
  growth rate μ (mean): 0.420 h⁻¹
  lag time tlag (mean): 10.6 h
[1]; strain GLUT6-10
  growth rate μ (mean): 0.502 h⁻¹
  lag time tlag (mean): 10.5 h
[1]; strain GLUT7-2
  growth rate μ (mean): 0.441 h⁻¹
  lag time tlag (mean): 10.6 h
[1]; strain GLUT7-6
  growth rate μ (mean): 0.293 h⁻¹
  lag time tlag (mean): 13.7 h
[1]; strain GLUT7-7
  growth rate μ (mean): 0.239 h⁻¹
  lag time tlag (mean): 8.5 h
[1]; strain GLUT8-5
  growth rate μ (mean): 0.372 h⁻¹
  lag time tlag (mean): 17.3 h
[1]; strain GLUT8-6
  growth rate μ (mean): 0.236 h⁻¹
  lag time tlag (mean): 10.3 h
[1]; strain GLUT8-9
  growth rate μ (mean): 0.224 h⁻¹
  lag time tlag (mean): 12.0 h
[1]; strain MG1655 (Table 26)
  growth rate μ (mean): 0.248 h⁻¹
  lag time tlag (mean): 13.4 h
[1]; strain MG1655 (Table 27)
  growth rate μ (mean): 0.257 h⁻¹
  lag time tlag (mean): 13.0 h
[2]; growth rate of K-12 MG1655, 10 g/L diacid (sodium salt)
  μ (mean): 0.703 h^1
[2]; growth rate of K-12 MG1655, 20 g/L diacid (sodium salt)
  μ (mean): 0.603 h^1
[2]; growth rate of K-12 MG1655, 30 g/L diacid (sodium salt)
  μ (mean): 0.520 h^1
[2]; growth rate of K-12 MG1655, 40 g/L diacid (sodium salt)
  μ (mean): 0.320 h^1
[2]; growth rate of K-12 MG1655, 50 g/L diacid (sodium salt)
  μ (mean): 0.117 h^1
[2]; lag time of K-12 MG1655, 10 g/L diacid (sodium salt)
  tlag (mean): 5.8 h
[2]; lag time of K-12 MG1655, 20 g/L diacid (sodium salt)
  tlag (mean): 7.0 h
[2]; lag time of K-12 MG1655, 30 g/L diacid (sodium salt)
  tlag (mean): 9.4 h
[2]; lag time of K-12 MG1655, 40 g/L diacid (sodium salt)
  tlag (mean): 14.1 h
[2]; lag time of K-12 MG1655, 50 g/L diacid (sodium salt)
  tlag (mean): 29.9 h
